Patent US4804676A, “Enkephalinase B inhibitors, their preparation, and pharmaceutical compositions containing the same” (Sankyo Company Limited, priority 1984, dated 1989)
Where two headings read alike, the source gives them in different places.

What was measured:
[1] = system: rat; test: Analgesic action by the Randall-Selitto method after administration into the cerebral ventricle; format: in vivo
Description: Propioxatin A (10 μg) and enkephalin (1 mg) were administered simultaneously into the cereberal ventricle of a rat and the analgesic action thereof was examined by the Randall-Selitto method (Randall, L. D. and Selitto, J. J.; Arch. Int. Pharmacodyn. 111, 409-419 (1957)). The same quantities of Propioxatinn A and enkephalin were also administered separately, as controls.

[2] = target: T1, enkephalinase B (Rattus norvegicus, UniProt O55096); test: Inhibition of enkephalinase B, Ki by the method of Dixon (Tyr-Gly released from methionine-enkephalin, HPLC); format: biochemical; conditions: for Ki: enkephalinase B, pH 6.5, 37° C., methionine-enkephalin substrate, method of Dixon, read-out: Ki value (inhibition constant)
T1 construct: from tissue; host or cells: rat brain membrane, Triton X-100 solubilized, purified by DEAE chromatography, chromatofocusing and gel filtration
T1 sequence (O55096 2-738 limits assumed): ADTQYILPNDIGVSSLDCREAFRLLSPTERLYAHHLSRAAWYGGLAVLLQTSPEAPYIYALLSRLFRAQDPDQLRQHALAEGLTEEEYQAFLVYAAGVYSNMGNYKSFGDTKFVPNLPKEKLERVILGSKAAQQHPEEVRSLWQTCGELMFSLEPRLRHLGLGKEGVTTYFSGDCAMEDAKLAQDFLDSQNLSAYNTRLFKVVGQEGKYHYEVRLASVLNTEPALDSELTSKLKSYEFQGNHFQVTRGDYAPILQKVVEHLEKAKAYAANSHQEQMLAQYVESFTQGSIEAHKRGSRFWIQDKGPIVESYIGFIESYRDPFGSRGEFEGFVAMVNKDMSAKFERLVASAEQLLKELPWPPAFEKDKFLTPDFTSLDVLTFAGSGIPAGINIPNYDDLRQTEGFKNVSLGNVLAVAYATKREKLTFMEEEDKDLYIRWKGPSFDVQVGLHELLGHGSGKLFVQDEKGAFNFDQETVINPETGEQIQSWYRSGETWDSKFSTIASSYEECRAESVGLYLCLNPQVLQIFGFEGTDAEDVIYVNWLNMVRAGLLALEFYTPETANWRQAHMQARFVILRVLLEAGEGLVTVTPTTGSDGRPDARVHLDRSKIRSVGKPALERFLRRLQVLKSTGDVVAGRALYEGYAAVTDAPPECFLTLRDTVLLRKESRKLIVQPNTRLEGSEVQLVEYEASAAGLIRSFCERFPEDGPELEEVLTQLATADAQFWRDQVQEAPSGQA
Description: The presence of the desired substances, Propioxatins A and B, can be assessed quantitavely during the processes of cultivation and purification by measuring the enkephalinase B inhibition activity. To do this, methionine-enkephalin is incubated with an enkephalinase B solution containing the Propioxatin, and then the amount of the resulting product tyrosyl-glycine (Tyr-Gly) is estimated by chromatography (e.g. thin layer chromatography or high pressure liquid chromatography). A blank test without Propioxatin is also carried out, and the enkephalinase B inhibition constant is determined. The enkephalinase B solution used for this technique can be prepared from rat brain by generally-known enzyme purification methods. Since enkephalinase B exists in rat brain as a membrane-bound enzyme, it is released from the membrane and made soluble using a detergent such as Triton X-100. The solubilized enzyme is then subjected to a combination of purification processes such as ion-exchange chromatography in which various kinds of ion-exchangers having a diethylaminoethyl (DEAE) group can be used, gel filtration using a molecular sieve, or isoelectric fractionation to obtain the purified enkephalinase B. These methods are described in greater detail hereinafter in the Examples.
(§1) 100 g of rat brain was homogenized using 1 liter of 50 mM tris-HCl buffer (pH 7.7) and the homogenate was centrifuged at 50,000 G for 15 minutes to give a precipitate. The precipitate was washed three times and centrifuged as before. It was then suspended in 500 ml of the same buffer containing 1% of Triton X-100, and kept at 37° C. for 1 hour. The suspension was centrifuged at 100,000 G for 1 hour to give a crude enzyme solution of enkephalinase B as supernatant.
(§2) The thus obtained crude enzyme solution was dialyzed against a 5 mM sodium phosphate buffer (pH 7.0) and was applied for adsorption to a column (3.0×30 cm) of DEAE-Sephacel (produced by Pharmacia Co. Ltd.) previously equilibrated with the same buffer containing 1% Triton X-100 (solution A). The column was washed with solution A and eluted with 2.5 liters of solution A and with 2.5 liters of solution A which contains 0.4M sodium chloride by the linear concentration gradient method.
(§3) The obtained fraction of enkephalinase B was dialyzed against solution A, and was applied for adsorption to a column (1.6×27 cm) of DEAE-Toyopearl 670S (produced by Toyo Soda Kogyo K.K.) previously equilibrated with solution A. Elution was carried out using 500 ml of solution A and 500 ml of a solution of 0.4M sodium chloride dissolved in solution A by the linear concentration gradient method. […]

[3] = Solubility; format: physicochemical
[4] = target: T1, enkephalinase B; test: Enkephalinase B inhibition IC50, method of Parker and Waud, substrate 0.1 mM methionine-enkephalin; format: biochemical
Description: as §1
as §2, with “method. […]” for “method.”
A mixture of 40 μl of 0.1M sodium phosphate buffer (pH 6.5), 10 μl of a Propioxatin A solution and 40 μl of an enkephalinase B solution was incubated at 37° C. for 5 minutes, then 10 μl of a 1 mM or 10 mM methionine-enkephalin solution were added, followed by stirring at 37° C. for 20 minutes. The reaction was then stopped by adding 10 μl of 2N hydrochloric acid to the reaction mixture, and the amount of tyrosyl-glycine (Tyr-Gly) produced (Vi) with respect to 20 μl of the reaction mixture was determined by high pressure liquid chromatography. Similarly, the amount of tyrosyl-glycine produced (V) in a blank test, in which no Propioxatin was contained and only a buffer was used, was measured. […]
By way of comparison, the enkephalinase B inhibition activity was also measured for the compound N-[3-(N-hydroxycarbamoyl)-2-benzylpropanoyl]alanine, which is a compound within formula (I) of the above-mentioned French patent specification No. 2 518 088 (Japanese laid-open application No. 58-150547). […]

[5] = target: T1, enkephalinase B; test: Enzymatic properties of purified enkephalinase B (Michaelis constant); format: biochemical; conditions: purified rat brain enkephalinase B
Description: as §1, §2, §3

[6] = enkephalin 1 mg, Propioxatin A 10 μg

type of inhibition of enkephalinase B [2] | Ki [2] [µM] | Solubility in ethanol and acetone [3] | Solubility in ethyl acetate, chloroform, benzene and ether [3] | Solubility in water, methanol and dimethyl sulfoxide [3] | Structure (SMILES) | other results
– | – | – | – | – | CC(C)C[C@H](NC(=O)[C@H](Cc1ccccc1)NC(=O)CNC(=O)CNC(=O)[C@@H](N)Cc1ccc(O)cc1)C(=O)O [enkephalin] | time for analgesic effect to fall to 50% of its peak value [1, 6]: about 30 minutes; time of peak value of analgesic effect after injection [1, 6]: approximately 10 minutes
competitive inhibitor | 0.013 | slightly soluble | insoluble | Soluble | CCC[C@H](CC(=O)NO)C(=O)N1CCC[C@H]1C(=O)N[C@H](C(=O)O)C(C)C [Propioxatin A] | analgesic effect ([1]; Propioxatin A 10 μg injected alone): No appreciable analgesic effect; prolonging the analgesic action of enkephalin ([1]; Propioxatin A 10 μg with enkephalin 1 mg): significantly effective; IC50 ([4]; enkephalinase B, substrate 0.1 mM methionine-enkephalin, read-out: IC50 (converted)): 0.0299 µM; more active than the prior art compound ([4]; ratio to the compound of FR 2 518 088, enkephalinase B IC50): approximately 1,000
competitive inhibitor | 0.11 | slightly soluble | insoluble | Soluble | CC(C)C[C@H](CC(=O)NO)C(=O)N1CCC[C@H]1C(=O)N[C@H](C(=O)O)C(C)C [Propioxatin B] | –
– | – | – | – | – | CSCC[C@H](NC(=O)[C@H](Cc1ccccc1)NC(=O)CNC(=O)CNC(=O)[C@@H](N)Cc1ccc(O)cc1)C(=O)O [Methionine-enkephaline, Tyr-Gly-Gly-Phe-Met] | Km value relative to Methionine-enkephaline (Michaelis constant) [5]: 53 µM
– | – | – | – | – | C[C@H](NC(=O)C(CC(=O)NO)Cc1ccccc1)C(=O)O (stereo partly drawn) [Compound of FR 2 518 088, N-[3-(N-hydroxycarbamoyl)-2-benzylpropanoyl]alanine, reference compound] | IC50 [4]: 44.2 µM
